Measurements taken from patent EP4745137A1 (Gluetacs Therapeutics (Shanghai) Co., Ltd., priority 2023, dated 2025).

Tests used:
[1] = test system: CAL-62; assay: Tumor cell proliferation inhibition (CellTiter-Meiluncell Luminescent Cell Viability Assay), CAL-62; conditions: Homo sapiens, CAL-62, 96 h, read-out: inhibitory activity (IC50, nM) against tumor cells proliferation, CAL-62
Protocol: (§1) The tumor cells used herein were cultured in a cell culture medium listed in table 2 at 37°C in an incubator with 5% CO2. Prior to experimentation, all cell lines used were correctly identified by STR profiling, and tested negative for mycoplasma contamination using a mycoplasma detection kit through routine screenings.
On the following day, the test compounds of the present disclosure were subjected to serial dilution. […] Subsequently, 0.5 µL of the test compound dilution was transferred into the 96-well plate containing the cells, with each well containing 100 µL of cell culture medium. […] Into the 96-well plate, the diluted test compounds and corresponding detection reagents were added, resulting in final test compound concentrations of 500 nM and 10 nM, respectively. The experimental procedure is described below using the diluted 2 µM test compound as an example.
(§2) After the cells were treated with the compounds of the present disclosure for a specified period (the treatment durations were shown in Table 3), the cell viability assay reagent was added to the culture medium according to the kit's instructions to determine cell viability. […] All controls were treated using the same procedure as the compounds of the present disclosure. The growth inhibition curves for the compounds of the present disclosure were plotted using Prism GraphPad software, and the IC50 values were calculated therefrom.

[2] = molecular target: T1, IKZF1 (Homo sapiens, UniProt Q13422+Q96SW2); assay: Western-blot assay of substrate protein degradation in hPBMCs, IKZF1; format: cell-based; conditions: 24 hours of compound treatment, compounds tested at 50 nM and 500 nM (concentration of the table not stated)
T1 construct: endogenous in cells; host or cells: hPBMCs (Milecell Biotechnologies)
T1 sequence (Q13422 whole entry): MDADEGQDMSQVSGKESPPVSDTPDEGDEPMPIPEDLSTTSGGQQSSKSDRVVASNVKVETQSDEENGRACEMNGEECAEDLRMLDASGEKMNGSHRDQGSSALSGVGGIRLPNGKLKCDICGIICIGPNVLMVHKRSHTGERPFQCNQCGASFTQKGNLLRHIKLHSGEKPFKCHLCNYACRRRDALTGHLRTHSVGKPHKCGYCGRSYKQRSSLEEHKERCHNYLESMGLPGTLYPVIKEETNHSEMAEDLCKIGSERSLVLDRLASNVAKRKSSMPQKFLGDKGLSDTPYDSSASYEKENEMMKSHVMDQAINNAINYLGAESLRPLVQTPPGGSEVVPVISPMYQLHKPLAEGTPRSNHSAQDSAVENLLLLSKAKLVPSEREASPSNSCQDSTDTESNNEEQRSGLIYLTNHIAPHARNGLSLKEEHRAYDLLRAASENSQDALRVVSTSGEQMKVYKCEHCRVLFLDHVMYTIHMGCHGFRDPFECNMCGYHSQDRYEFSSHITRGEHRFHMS
T1 sequence (Q96SW2 whole entry): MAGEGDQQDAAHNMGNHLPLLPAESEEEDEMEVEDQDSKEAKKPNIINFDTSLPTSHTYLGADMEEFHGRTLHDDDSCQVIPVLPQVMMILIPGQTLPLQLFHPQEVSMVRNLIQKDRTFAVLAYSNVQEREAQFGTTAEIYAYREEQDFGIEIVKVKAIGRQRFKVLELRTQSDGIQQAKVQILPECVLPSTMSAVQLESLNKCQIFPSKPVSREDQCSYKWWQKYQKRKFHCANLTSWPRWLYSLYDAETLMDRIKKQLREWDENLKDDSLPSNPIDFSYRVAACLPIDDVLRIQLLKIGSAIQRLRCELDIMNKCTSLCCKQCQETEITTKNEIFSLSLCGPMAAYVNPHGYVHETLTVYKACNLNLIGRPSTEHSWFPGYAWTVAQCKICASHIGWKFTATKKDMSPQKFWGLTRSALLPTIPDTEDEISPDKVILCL
T1 sequence (Q16531 whole entry partner): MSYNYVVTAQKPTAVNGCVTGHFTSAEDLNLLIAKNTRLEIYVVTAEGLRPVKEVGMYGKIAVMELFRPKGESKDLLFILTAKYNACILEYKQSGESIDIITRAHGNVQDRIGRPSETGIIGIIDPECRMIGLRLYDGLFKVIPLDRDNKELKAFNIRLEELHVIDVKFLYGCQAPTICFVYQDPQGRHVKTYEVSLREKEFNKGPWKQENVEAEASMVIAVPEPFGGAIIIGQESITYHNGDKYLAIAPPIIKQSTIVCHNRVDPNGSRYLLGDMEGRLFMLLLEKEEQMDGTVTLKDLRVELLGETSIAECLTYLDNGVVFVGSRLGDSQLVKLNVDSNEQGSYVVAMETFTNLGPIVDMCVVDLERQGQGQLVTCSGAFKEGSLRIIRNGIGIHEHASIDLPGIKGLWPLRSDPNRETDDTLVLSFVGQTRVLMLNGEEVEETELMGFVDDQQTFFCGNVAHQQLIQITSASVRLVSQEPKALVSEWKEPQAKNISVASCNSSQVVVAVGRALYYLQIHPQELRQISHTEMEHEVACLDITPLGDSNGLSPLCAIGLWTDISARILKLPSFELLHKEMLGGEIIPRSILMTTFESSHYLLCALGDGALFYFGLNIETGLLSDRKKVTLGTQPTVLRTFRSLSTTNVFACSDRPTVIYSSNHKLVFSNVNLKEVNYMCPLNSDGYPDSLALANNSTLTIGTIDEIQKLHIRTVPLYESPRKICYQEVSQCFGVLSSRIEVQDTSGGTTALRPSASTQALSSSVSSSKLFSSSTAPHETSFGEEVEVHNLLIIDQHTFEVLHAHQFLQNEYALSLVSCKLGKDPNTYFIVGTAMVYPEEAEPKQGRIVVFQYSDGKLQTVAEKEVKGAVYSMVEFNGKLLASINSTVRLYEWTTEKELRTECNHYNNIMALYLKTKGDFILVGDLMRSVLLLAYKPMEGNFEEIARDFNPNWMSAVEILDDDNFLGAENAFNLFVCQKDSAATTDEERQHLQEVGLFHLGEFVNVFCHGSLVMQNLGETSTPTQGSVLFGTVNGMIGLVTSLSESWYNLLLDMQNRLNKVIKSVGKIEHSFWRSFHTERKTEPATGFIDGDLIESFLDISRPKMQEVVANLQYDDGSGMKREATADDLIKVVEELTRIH

[3] = test system: NCI-H1975; assay: Tumor cell proliferation inhibition (CellTiter-Meiluncell Luminescent Cell Viability Assay), NCI-H1975; conditions: Homo sapiens, NCI-H1975, 96 h, read-out: inhibitory activity (IC50, nM) against tumor cells proliferation, H1975
[4] = molecular target: T2, GSPT1 (Homo sapiens, UniProt P15170+Q96SW2); assay: Western-blot assay of substrate protein degradation in hPBMCs, GSPT1; format: cell-based; conditions: 24 hours of compound treatment, compounds tested at 50 nM and 500 nM (concentration of the table not stated)
T2 construct: endogenous in cells; host or cells: hPBMCs (Milecell Biotechnologies)
T2 sequence (P15170 whole entry): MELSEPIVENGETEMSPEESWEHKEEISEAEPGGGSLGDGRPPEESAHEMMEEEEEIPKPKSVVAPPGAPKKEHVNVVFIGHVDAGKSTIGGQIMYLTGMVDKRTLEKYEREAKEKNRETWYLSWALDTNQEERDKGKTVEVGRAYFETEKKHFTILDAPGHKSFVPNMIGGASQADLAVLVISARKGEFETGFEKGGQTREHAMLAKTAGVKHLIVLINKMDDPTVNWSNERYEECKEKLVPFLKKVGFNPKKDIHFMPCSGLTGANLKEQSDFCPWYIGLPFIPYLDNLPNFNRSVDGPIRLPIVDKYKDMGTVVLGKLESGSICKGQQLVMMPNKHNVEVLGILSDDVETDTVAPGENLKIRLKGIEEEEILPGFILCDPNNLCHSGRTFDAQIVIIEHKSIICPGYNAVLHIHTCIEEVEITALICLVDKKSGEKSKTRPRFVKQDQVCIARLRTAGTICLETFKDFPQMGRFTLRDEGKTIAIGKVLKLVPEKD
T2 sequence (Q96SW2 whole entry): as the sequence (Q96SW2 whole entry) above
T2 sequence (Q16531 whole entry partner): as the sequence (Q16531 whole entry partner) above

[5] = test system: MGC803; assay: Tumor cell proliferation inhibition (CellTiter-Meiluncell Luminescent Cell Viability Assay), MGC803; conditions: Homo sapiens, MGC-803, 96 h, read-out: inhibitory activity (IC50, nM) against tumor cells proliferation, MGC803
Protocol: as §1
(§3) On the following day, the test compounds of the present disclosure were subjected to serial dilution. […] Subsequently, 0.5 µL of the test compound dilution was transferred into the 96-well plate containing the cells, with each well containing 100 µL of cell culture medium. […] Into the 96-well plate, the diluted test compounds and corresponding detection reagents were added, resulting in final test compound concentrations of 500 nM and 10 nM, respectively.
as §2

[6] = molecular target: T3, WEE1 (Homo sapiens, UniProt P30291+Q96SW2); assay: Western-blot assay of substrate protein degradation in hPBMCs, WEE1; format: cell-based; conditions: 24 hours of compound treatment, compounds tested at 50 nM and 500 nM (concentration of the table not stated)
T3 construct: endogenous in cells; host or cells: hPBMCs (Milecell Biotechnologies)
T3 sequence (P30291 whole entry): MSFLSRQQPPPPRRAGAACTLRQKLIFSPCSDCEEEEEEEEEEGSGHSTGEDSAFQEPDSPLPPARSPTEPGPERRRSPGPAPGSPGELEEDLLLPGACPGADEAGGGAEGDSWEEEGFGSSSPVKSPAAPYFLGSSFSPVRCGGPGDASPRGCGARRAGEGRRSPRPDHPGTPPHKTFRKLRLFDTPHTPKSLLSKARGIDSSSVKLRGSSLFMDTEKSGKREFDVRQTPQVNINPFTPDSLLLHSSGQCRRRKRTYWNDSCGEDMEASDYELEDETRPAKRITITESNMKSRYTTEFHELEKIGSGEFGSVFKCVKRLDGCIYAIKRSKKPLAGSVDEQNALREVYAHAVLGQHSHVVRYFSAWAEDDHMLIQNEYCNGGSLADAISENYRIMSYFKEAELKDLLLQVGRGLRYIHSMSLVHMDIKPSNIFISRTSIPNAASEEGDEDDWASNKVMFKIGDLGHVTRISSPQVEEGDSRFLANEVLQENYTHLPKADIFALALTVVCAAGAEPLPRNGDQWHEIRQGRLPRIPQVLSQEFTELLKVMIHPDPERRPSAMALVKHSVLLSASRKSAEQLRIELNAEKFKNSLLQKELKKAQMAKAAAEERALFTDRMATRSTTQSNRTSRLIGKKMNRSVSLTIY
T3 sequence (Q96SW2 whole entry): as the sequence (Q96SW2 whole entry) above
T3 sequence (Q16531 whole entry partner): as the sequence (Q16531 whole entry partner) above

[7] = test system: Jurkat; assay: Tumor cell proliferation inhibition (CellTiter-Meiluncell Luminescent Cell Viability Assay), Jurkat; conditions: Homo sapiens, 96 h, read-out: inhibitory activity (IC50, nM) against tumor cells proliferation, Jurkat
[8] = test system: SR; assay: Tumor cell proliferation inhibition (CellTiter-Meiluncell Luminescent Cell Viability Assay), SR; conditions: Homo sapiens, 96 h, read-out: inhibitory activity (IC50, nM) against tumor cells proliferation, SR
Protocol: as §1, §3, §2

[9] = molecular target: T4, IKZF2 (Homo sapiens, UniProt Q96SW2+Q9UKS7); assay: Western-blot assay of substrate protein degradation in hPBMCs, IKZF2; format: cell-based; conditions: 24 hours of compound treatment, compounds tested at 50 nM and 500 nM (concentration of the table not stated)
T4 construct: endogenous in cells; host or cells: hPBMCs (Milecell Biotechnologies)

[10] = molecular target: T5, IKZF3 (Homo sapiens, UniProt Q96SW2+Q9UKT9); assay: Western-blot assay of substrate protein degradation in hPBMCs, IKZF3; format: cell-based; conditions: 24 hours of compound treatment, compounds tested at 50 nM and 500 nM (concentration of the table not stated)
T5 construct: endogenous in cells; host or cells: hPBMCs (Milecell Biotechnologies)
T5 sequence (Q9UKT9 whole entry): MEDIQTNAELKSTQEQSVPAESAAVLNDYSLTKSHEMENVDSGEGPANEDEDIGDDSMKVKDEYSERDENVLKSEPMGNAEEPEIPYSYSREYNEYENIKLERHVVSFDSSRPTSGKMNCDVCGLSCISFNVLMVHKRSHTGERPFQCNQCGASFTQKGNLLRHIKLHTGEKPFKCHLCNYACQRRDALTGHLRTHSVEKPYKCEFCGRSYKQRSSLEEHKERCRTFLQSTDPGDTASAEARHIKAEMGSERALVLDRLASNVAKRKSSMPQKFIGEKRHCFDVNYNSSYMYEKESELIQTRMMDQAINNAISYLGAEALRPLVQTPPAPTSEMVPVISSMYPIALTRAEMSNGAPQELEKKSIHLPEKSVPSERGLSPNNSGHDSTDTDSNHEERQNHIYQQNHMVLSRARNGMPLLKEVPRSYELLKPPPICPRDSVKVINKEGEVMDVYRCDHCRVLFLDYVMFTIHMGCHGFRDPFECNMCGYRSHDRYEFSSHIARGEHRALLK
T5 sequence (Q96SW2 whole entry): as the sequence (Q96SW2 whole entry) above
T5 sequence (Q16531 whole entry partner): as the sequence (Q16531 whole entry partner) above

[11] = test system: Human breast cancer cells (MDA-MB-231); assay: Tumor cell proliferation inhibition (CellTiter-Meiluncell Luminescent Cell Viability Assay), MDA-MB-231; conditions: MDA-MB-231, 96 h, read-out: inhibitory activity (IC50, nM) against tumor cells proliferation, MDA-MB-231
[12] = test system: MM.1R; assay: Tumor cell proliferation inhibition (CellTiter-Meiluncell Luminescent Cell Viability Assay), MM.1R; conditions: Homo sapiens, 96 h, read-out: inhibitory activity (IC50, nM) against tumor cells proliferation, MM.1R
[13] = molecular target: T6, human Cereblon WT GST-tagged protein (Homo sapiens, UniProt Q96SW2); assay: CRBN-binding affinity by HTRF (CEREBLON BINDING kit); conditions: HTRF inhibitory activity, CEREBLON BINDING kit; read-out: HTRF IC50
T6 construct: purchased CISBIO 64BDCRBNPEH
T6 sequence (Q96SW2 whole entry): as the sequence (Q96SW2 whole entry) above

[14] = test system: Human acute T lymphocytic leukemia cells (Molt-4); assay: Tumor cell proliferation inhibition (CellTiter-Meiluncell Luminescent Cell Viability Assay), Molt-4; conditions: MOLT-4, 96 h, read-out: inhibitory activity (IC50, nM) against tumor cells proliferation, Molt 4
[15] = test system: SW620; assay: Tumor cell proliferation inhibition (CellTiter-Meiluncell Luminescent Cell Viability Assay), SW620; conditions: Homo sapiens, SW-620, 96 h, read-out: inhibitory activity (IC50, nM) against tumor cells proliferation, SW620
[16] = molecular target: T7, CK1α (Homo sapiens, UniProt P48729+Q96SW2); assay: Western-blot assay of substrate protein degradation in hPBMCs, CK1α; format: cell-based; conditions: 24 hours of compound treatment, compounds tested at 50 nM and 500 nM (concentration of the table not stated)
T7 construct: endogenous in cells; host or cells: hPBMCs (Milecell Biotechnologies)
T7 sequence (P48729 whole entry): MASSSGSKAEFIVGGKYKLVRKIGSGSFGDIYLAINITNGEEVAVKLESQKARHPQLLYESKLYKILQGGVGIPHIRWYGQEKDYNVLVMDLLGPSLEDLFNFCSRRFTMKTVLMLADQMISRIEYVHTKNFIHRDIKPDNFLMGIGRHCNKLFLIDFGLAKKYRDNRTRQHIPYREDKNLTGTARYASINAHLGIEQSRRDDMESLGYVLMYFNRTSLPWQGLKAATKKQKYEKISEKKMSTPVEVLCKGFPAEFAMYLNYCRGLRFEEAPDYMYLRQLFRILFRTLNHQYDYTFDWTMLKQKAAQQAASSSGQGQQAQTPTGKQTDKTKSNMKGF
T7 sequence (Q96SW2 whole entry): as the sequence (Q96SW2 whole entry) above
T7 sequence (Q16531 whole entry partner): as the sequence (Q16531 whole entry partner) above

[17] = test system: Vcap; assay: Tumor cell proliferation inhibition (CellTiter-Meiluncell Luminescent Cell Viability Assay), Vcap; conditions: Homo sapiens, 96 h, read-out: inhibitory activity (IC50, nM) against tumor cells proliferation, Vcap
[18] = test system: CCRF-CEM; assay: Tumor cell proliferation inhibition (CellTiter-Meiluncell Luminescent Cell Viability Assay), CCRF-CEM; conditions: Homo sapiens, 96 h, read-out: inhibitory activity (IC50, nM) against tumor cells proliferation, CCRF-CEM

IC50 [1]	IC50 [3]	IC50 [5]	IC50 [7]	IC50 [8]	IC50 [11]	IC50 [12]	IC50 [13]	IC50 [14]	IC50 [15]	IC50 [17]	IC50 [18]	Compound	IKZF 1 substrate protein remaining % [2]	GSPT1 substrate protein remaining % [4]	Weel substrate protein remaining % [6]	IKZF2 substrate protein remaining % [9]	IKZF3 substrate protein remaining % [10]	CK1a substrate protein remaining % [16]
5 to 10 nM	10 to 50 nM	50 to 100 nM	1 to 5 nM	50 to 100 nM	10 to 50 nM	1 to 5 nM	500 to 1000 nM	1 to 5 nM	10 to 50 nM	10 to 50 nM	1 to 5 nM	O=C1CCC(N2Cc3cc(CN4CCC(c5cccc(Br)c5)CC4)ccc3C2=O)C(=O)N1 (stereo not drawn) [GT-04466, 3-(5-((4-(3-bromophenyl)piperidin-1-yl)methyl)-1-oxoisoindolin-2-yl)piperidine-2,6-dione]	A (0% ≤ substrate protein remaining % ≤ 80%)	A (0% ≤ substrate protein remaining % ≤ 80%)	A (0% ≤ substrate protein remaining % ≤ 80%)	A (0% ≤ substrate protein remaining % ≤ 80%)	A (0% ≤ substrate protein remaining % ≤ 80%)	A (0% ≤ substrate protein remaining % ≤ 80%)
1 to 5 nM	10 to 50 nM	10 to 50 nM	1 to 5 nM	10 to 50 nM	10 to 50 nM	1 to 5 nM	500 to 1000 nM	1 to 5 nM	10 to 50 nM	5 to 10 nM	1 to 5 nM	O=C1CCC(N2Cc3cc(CN4CCN(c5cccc(Br)c5)CC4)ccc3C2=O)C(=O)N1 (stereo not drawn) [GT-04467, 3-(5-((4-(3-bromophenyl)piperazin-1-yl)methyl)-1-oxoisoindolin-2-yl)piperidine-2,6-dione]	A (0% ≤ substrate protein remaining % ≤ 80%)	A (0% ≤ substrate protein remaining % ≤ 80%)	A (0% ≤ substrate protein remaining % ≤ 80%)	A (0% ≤ substrate protein remaining % ≤ 80%)	A (0% ≤ substrate protein remaining % ≤ 80%)	A (0% ≤ substrate protein remaining % ≤ 80%)

The remaining lines, values behind:

Compound	IC50 [1]	IC50 [3]	IC50 [5]	IC50 [7]	IC50 [8]	IC50 [11]	IC50 [12]	IC50 [13]	IC50 [14]	IC50 [15]	IC50 [17]	IC50 [18]	IKZF 1 substrate protein remaining % [2]	GSPT1 substrate protein remaining % [4]	Weel substrate protein remaining % [6]	IKZF2 substrate protein remaining % [9]	IKZF3 substrate protein remaining % [10]	CK1a substrate protein remaining % [16]
O=C1CCC(N2Cc3cc(CN4CCN(c5ccccc5Cl)CC4)ccc3C2=O)C(=O)N1 (stereo not drawn) [GT-04454, 3-(5-((4-(2-chlorophenyl)piperazin-1-yl)methyl)-1-oxoisoindolin-2-yl)piperidine-2,6-dione]	10 to 50 nM	100 to 500 nM	100 to 500 nM	5 to 10 nM	100 to 500 nM	100 to 500 nM	10 to 50 nM	500 to 1000 nM	10 to 50 nM	100 to 500 nM	10 to 50 nM	10 to 50 nM	A (0% ≤ substrate protein remaining % ≤ 80%)	A (0% ≤ substrate protein remaining % ≤ 80%)	A (0% ≤ substrate protein remaining % ≤ 80%)	A (0% ≤ substrate protein remaining % ≤ 80%)	A (0% ≤ substrate protein remaining % ≤ 80%)	A (0% ≤ substrate protein remaining % ≤ 80%)
O=C1CCC(N2Cc3cc(CN4CCN(c5ccc(Cl)cc5)CC4)ccc3C2=O)C(=O)N1 (stereo not drawn) [GT-04455, 3-(5-((4-(4-chlorophenyl)piperazin-1-yl)methyl)-1-oxoisoindolin-2-yl)piperidine-2,6-dione]	5 to 10 nM	50 to 100 nM	50 to 100 nM	1 to 5 nM	100 to 500 nM	50 to 100 nM	5 to 10 nM	500 to 1000 nM	1 to 5 nM	10 to 50 nM	10 to 50 nM	1 to 5 nM	A (0% ≤ substrate protein remaining % ≤ 80%)	A (0% ≤ substrate protein remaining % ≤ 80%)	A (0% ≤ substrate protein remaining % ≤ 80%)	A (0% ≤ substrate protein remaining % ≤ 80%)	A (0% ≤ substrate protein remaining % ≤ 80%)	A (0% ≤ substrate protein remaining % ≤ 80%)
O=C1CCC(N2Cc3cc(CN4CCN(c5ccccc5Br)CC4)ccc3C2=O)C(=O)N1 (stereo not drawn) [GT-04456, 3-(5-((4-(2-bromophenyl)piperazin-1-yl)methyl)-1-oxoisoindolin-2-yl)piperidine-2,6-dione]	10 to 50 nM	100 to 500 nM	100 to 500 nM	5 to 10 nM	500 to 1000 nM	100 to 500 nM	10 to 50 nM	500 to 1000 nM	10 to 50 nM	100 to 500 nM	50 to 100 nM	5 to 10 nM	A (0% ≤ substrate protein remaining % ≤ 80%)	A (0% ≤ substrate protein remaining % ≤ 80%)	A (0% ≤ substrate protein remaining % ≤ 80%)	A (0% ≤ substrate protein remaining % ≤ 80%)	A (0% ≤ substrate protein remaining % ≤ 80%)	A (0% ≤ substrate protein remaining % ≤ 80%)
Cc1cccc(N2CCN(Cc3ccc4c(c3)CN(C3CCC(=O)NC3=O)C4=O)CC2)c1 (stereo not drawn) [GT-04462, 3-(1-oxo-5-((4-(m-tolyl)piperazin-1-yl)methyl)isoindolin-2-yl)piperidine-2,6-dione]	10 to 50 nM	10 to 50 nM	10 to 50 nM	10 to 50 nM	10 to 50 nM	10 to 50 nM	1 to 5 nM	500 to 1000 nM	1 to 5 nM	10 to 50 nM	5 to 10 nM	1 to 5 nM	A (0% ≤ substrate protein remaining % ≤ 80%)	A (0% ≤ substrate protein remaining % ≤ 80%)	A (0% ≤ substrate protein remaining % ≤ 80%)	A (0% ≤ substrate protein remaining % ≤ 80%)	A (0% ≤ substrate protein remaining % ≤ 80%)	A (0% ≤ substrate protein remaining % ≤ 80%)
Cc1ccc(N2CCN(Cc3ccc4c(c3)CN(C3CCC(=O)NC3=O)C4=O)CC2)cc1 (stereo not drawn) [GT-04463, 3-(1-oxo-5-((4-(p-tolyl)piperazin-1-yl)methyl)isoindolin-2-yl)piperidine-2,6-dione]	10 to 50 nM	100 to 500 nM	100 to 500 nM	5 to 10 nM	500 to 1000 nM	100 to 500 nM	5 to 10 nM	1000 to 1500 nM	5 to 10 nM	100 to 500 nM	10 to 50 nM	5 to 10 nM	A (0% ≤ substrate protein remaining % ≤ 80%)	A (0% ≤ substrate protein remaining % ≤ 80%)	A (0% ≤ substrate protein remaining % ≤ 80%)	A (0% ≤ substrate protein remaining % ≤ 80%)	A (0% ≤ substrate protein remaining % ≤ 80%)	A (0% ≤ substrate protein remaining % ≤ 80%)
